Measurements from US20230392126A1, “TISSUE ORGANOIDS” (priority 2016, published 2023).

Columns and labels:
human epidermal cells = test: Secretion of GLP1 in culture medium by ELISA (human epidermal cells); format: cell-based; conditions: engineered human epidermal cells, doxycycline
From the text: To examine CRISPR-mediated genome editing in human epidermal cells, vectors encoding two gRNAs targeting human AAVS1 (adeno-associated virus integration site 1) locus, and an AAVS1-targeting vector (FIG. 16A) that harbors a tetracycline-inducible expression cassette encoding the GLP-1 and IgG-Fc fragment fusion protein were used. […] Clones were isolated and correct integration confirmed by southern blotting analysis (FIG. 13D).

[1] = tested on: human epidermal keratinocytes; test: Cell proliferation and differentiation of engineered human epidermal cells in vitro; format: cell-based
Protocol: Primary human neonatal epidermal keratinocytes were obtained from Thermo Fischer® (C0015C), and cultured with Epilife® medium (Thermo Fischer, M-EPICF-500) with manufacturer's recommended procedures. Calcium shift was performed to induce differentiation of primary keratinocytes by increasing the calcium concentration in culture media to 1.5 mM.
Propidium iodide (PI) staining followed by flow cytometry were used to determine the effect of cell cycle profiles. Mouse and human epidermal cells were cultured in two 6 cm cell culture dish for 24 hours, respectively. Cells were trypsinized, and 1×10^5 cells from each dish were collected, followed by one PBS wash. […] After staining, the cells were analyzed immediately using flow cytometer BD FACSCanto™ II (BD Biosciences, San Jose, CA) with an excitation wavelength at 488 nm and emission at 585 nm. DNA content and histograms of cell cycle distribution were analyzed using FlowJo™ software, version 10 (FLOWJO LLC, OR).
Western blotting was performed as described previously (Blanpain et al.). […] Visualization and quantification was carried out with the LI-COR Odyssey® scanner and software (LI-COR Biosciences).
Propidium iodide (PI) staining followed by flow cytometry were used to determine the effect of cell cycle profiles. […] DNA content and histograms of cell cycle distribution were analyzed using FlowJo™ software, version 10 (FLOWJO LLC, OR). […]

[2] = Intraperitoneal glucose tolerance test (IPGTT) in grafted mice fed HFD; format: in vivo, mouse
Protocol: For glucose tolerance testing, an intraperitoneal glucose tolerance test (IPGTT) was performed on mice fed an HFD for 10 weeks. Mice were fasted for 6 h before the test. Animals were injected (1 g/kg glucose/body weight, i.p.) with glucose dissolved in saline, and blood glucose was measured at 0, 10, 20, 30, 60 and 90 minutes using glucose test strips and glucose meters.
IPGTT was performed to examine glucose homeostasis.
For glucose and insulin tolerance tests, an intraperitoneal glucose tolerance test (IPGTT) was performed on mice fed an HFD for 10 weeks. Mice were fasted for 6 h before the test. Animals were injected (1 g/kg glucose/body weight, i.p.) with glucose dissolved in saline, and blood glucose was measured at 0, 30, 60 and 90 min using glucose test strips and glucose meters. An intraperitoneal insulin tolerance test was carried out 1 week after IPGTT. Mice were fasted for 4 h and injected (2 U/kg, i.p.) with insulin purchased from Sigma (St. Louis, MO). Blood glucose levels were determined thereafter at 0, 30, 60 and 90 min.
To examine glucose homeostasis, IPGTT (intraperitoneal glucose tolerance test) and ITT (insulin tolerance test) were performed.

[3] = Obesity induced by high fat diet in grafted mice; format: in vivo, mouse
From the text: (§1) Male CD-1 mice with skin transplants were housed (5 per cage, ˜8 weeks old) in a central-controlled animal facility for air, humidity and temperature. These mice were fed either a regular chow or an HFD (60% kcal from fats, 20% from carbohydrates, and 20% from proteins) purchased from Bio-Serv (Frenchtown, NJ). Body weight and food intake were measure biweekly.
To examine the potential applicability in diet-induced obesity and diabetes, GLP1/GGBP-expressing cells and control cells (GGBP alone) were transplanted into two cohorts of CD1 adult male mice. The mice were fed a high fat diet (HFD) to induce obesity in grafted animals. Compared with animals on a regular chow diet, the HFD greatly accelerated body weight gain in mice grafted with control cells.
as §1, with “mice” for “mice with skin transplants”, “humidity,” for “humidity”
To examine the potential effect in diet-induced obesity and diabetes, GLP1-expressing cells and control cells were grafted onto two cohorts of CD1 adult mice, and a high fat diet (HFD) was used to induce obesity in the grafted animals. Doxycycline was applied to half of the animals to induce expression of GLP1. To minimize gender difference, only male animals were used. Compared with animals on regular chow diet, HFD greatly accelerated body weight gain in mice grafted with control cells or GLP1 cells without doxycycline treatment.

Q: Which GLP1 production (human epidermal cells) does the source give for GLP1 here?
A: The GLP1 production was “strong GLP1 production upon dose-dependent stimulation with doxycycline”.

Q: What about the “effect of expression on cell proliferation / differentiation in vitro” value [1] of the same substance?
A: The value was “did not significantly change cell proliferation”.

Q: What about the glycemic excursion ([2]; GLP1/GGBP grafts, blood glucose and GGBP imaging) of the same substance?
A: The glycemic excursion was “significantly reduced glycemic excursion”.

Q: What about the glycemic excursion ([2]; HFD, doxycycline-induced GLP1) of the same substance?
A: Its glycemic excursion is “significantly reduced glycemic excursion”.

Q: What about the body weight increase ([3]; HFD, GLP1/GGBP-expressing grafts vs GGBP alone, CD1 male mice) of the same substance?
A: Its body weight increase is “significant inhibition in body weight increase”.

Q: And the body weight ([3]; HFD, doxycycline-induced GLP1 expression, CD1 male mice)?
A: The body weight was “significant decrease in body weight”.

Q: What about the “HFD-induced adipocyte hypertrophy in white fat tissue” value ([3]; doxycycline-induced GLP1 expression) of the same substance?
A: The value was “dramatically suppressed this effect”.
